# From patent US20230276831A1, “Food/Beverage Article” (Kikkoman Corporation, priority 2020, published 2023)
# Tested on: Lactobacillus rennini (DSM 20253)
# Assay: Antimicrobial action of licoricidin in soy sauce at various pH (Test Example 5)
# Type: cell-based
# Parameters: key: A: The bacterial count decreases to less than 10% of the bacterial count of the control group.; B: The bacterial count decreases to 10% or more and less than 50% of the bacterial count of the control group.; C: The bacterial count decreases to 50% or more and less than 100% of the bacterial count of control group.; D: The bacterial count is the same as the bacterial count of the control group
# Protocol: Commercially available whole soybean soy sauce (produced by Kikkoman Corporation) was electrodialyzed and then concentrated under reduced pressure to obtain soy sauce at a salt concentration of 0% (w/v) and an alcohol concentration of 0% (v/v). Then, salt and/or alcohol was added to the above-mentioned obtained soy sauce, and hydrochloric acid or an aqueous sodium hydroxide solution was then added to adjust the pH to a desired pH. Germfree purified water was added, and the mixture was then heat-treated to produce soy sauce at the salt concentration, the alcohol concentration, and the pH shown in the following Table 17.
# Licoricidin (produced by ChemFaces) was added to each of the obtained soy sauces to concentrations of 1 ppm, 5 ppm, 10 ppm, 25 ppm, and 50 ppm. Lactic acid bacteria (Lactobacillus rennini (DSM 20253)) were then added to 10^6 to 10^7 cells/mL and cultured at 30° C. for 7 days. After the culture, the number of lactic acid bacteria was measured using the GAM agar medium “Nissui”. Soy sauce to which licoricidin was not added was used as a control group, and the antimicrobial activity was evaluated in comparison with the number of lactic acid bacteria in the control group. The evaluation was performed using the same criterion as in Test Example 4.
smiles,measurement,setting,value
"COc1c(CC=C(C)C)c(O)cc2c1C[C@H](c1ccc(O)c(CC=C(C)C)c1O)CO2 [Licoricidin, 4-[(R)-7-hydroxy-5-methoxy-6-(3-methyl-2-butenyl)chroman-3-yl]-2-(3-methyl-2-butenyl)-1,3-benzenediol]",Antimicrobial activity,"salt 0% (w/v), pH 4.2, alcohol 0% (v/v), licoricidin 1 ppm",B (The bacterial count decreases to 10% or more and less than 50% of the bacterial count of the control group.)
same,Antimicrobial activity,"salt 0% (w/v), pH 4.2, alcohol 0% (v/v), licoricidin 5 ppm",B (The bacterial count decreases to 10% or more and less than 50% of the bacterial count of the control group.)
same,Antimicrobial activity,"salt 0% (w/v), pH 4.2, alcohol 0% (v/v), licoricidin 10 ppm",A (The bacterial count decreases to less than 10% of the bacterial count of the control group.)
same,Antimicrobial activity,"salt 0% (w/v), pH 4.2, alcohol 0% (v/v), licoricidin 25 ppm",A (The bacterial count decreases to less than 10% of the bacterial count of the control group.)
same,Antimicrobial activity,"salt 0% (w/v), pH 4.2, alcohol 0% (v/v), licoricidin 50 ppm",A (The bacterial count decreases to less than 10% of the bacterial count of the control group.)
same,Antimicrobial activity,"salt 0% (w/v), pH 4.2, alcohol 5% (v/v), licoricidin 1 ppm",B (The bacterial count decreases to 10% or more and less than 50% of the bacterial count of the control group.)
same,Antimicrobial activity,"salt 0% (w/v), pH 4.2, alcohol 5% (v/v), licoricidin 5 ppm",A (The bacterial count decreases to less than 10% of the bacterial count of the control group.)
same,Antimicrobial activity,"salt 0% (w/v), pH 4.2, alcohol 5% (v/v), licoricidin 10 ppm",A (The bacterial count decreases to less than 10% of the bacterial count of the control group.)
same,Antimicrobial activity,"salt 0% (w/v), pH 4.2, alcohol 5% (v/v), licoricidin 25 ppm",A (The bacterial count decreases to less than 10% of the bacterial count of the control group.)
same,Antimicrobial activity,"salt 0% (w/v), pH 4.2, alcohol 5% (v/v), licoricidin 50 ppm",A (The bacterial count decreases to less than 10% of the bacterial count of the control group.)
same,Antimicrobial activity,"salt 0% (w/v), pH 4.6, alcohol 0% (v/v), licoricidin 1 ppm",C (The bacterial count decreases to 50% or more and less than 100% of the bacterial count of control group.)
same,Antimicrobial activity,"salt 0% (w/v), pH 4.6, alcohol 0% (v/v), licoricidin 5 ppm",B (The bacterial count decreases to 10% or more and less than 50% of the bacterial count of the control group.)
same,Antimicrobial activity,"salt 0% (w/v), pH 4.6, alcohol 0% (v/v), licoricidin 10 ppm",A (The bacterial count decreases to less than 10% of the bacterial count of the control group.)
same,Antimicrobial activity,"salt 0% (w/v), pH 4.6, alcohol 0% (v/v), licoricidin 25 ppm",A (The bacterial count decreases to less than 10% of the bacterial count of the control group.)
same,Antimicrobial activity,"salt 0% (w/v), pH 4.6, alcohol 0% (v/v), licoricidin 50 ppm",A (The bacterial count decreases to less than 10% of the bacterial count of the control group.)
same,Antimicrobial activity,"salt 0% (w/v), pH 4.6, alcohol 5% (v/v), licoricidin 1 ppm",C (The bacterial count decreases to 50% or more and less than 100% of the bacterial count of control group.)
same,Antimicrobial activity,"salt 0% (w/v), pH 4.6, alcohol 5% (v/v), licoricidin 5 ppm",A (The bacterial count decreases to less than 10% of the bacterial count of the control group.)
same,Antimicrobial activity,"salt 0% (w/v), pH 4.6, alcohol 5% (v/v), licoricidin 10 ppm",A (The bacterial count decreases to less than 10% of the bacterial count of the control group.)
same,Antimicrobial activity,"salt 0% (w/v), pH 4.6, alcohol 5% (v/v), licoricidin 25 ppm",A (The bacterial count decreases to less than 10% of the bacterial count of the control group.)
same,Antimicrobial activity,"salt 0% (w/v), pH 4.6, alcohol 5% (v/v), licoricidin 50 ppm",A (The bacterial count decreases to less than 10% of the bacterial count of the control group.)
same,Antimicrobial activity,"salt 0% (w/v), pH 5.0, alcohol 0% (v/v), licoricidin 1 ppm",D
same,Antimicrobial activity,"salt 0% (w/v), pH 5.0, alcohol 0% (v/v), licoricidin 5 ppm",B (The bacterial count decreases to 10% or more and less than 50% of the bacterial count of the control group.)
same,Antimicrobial activity,"salt 0% (w/v), pH 5.0, alcohol 0% (v/v), licoricidin 10 ppm",B (The bacterial count decreases to 10% or more and less than 50% of the bacterial count of the control group.)
same,Antimicrobial activity,"salt 0% (w/v), pH 5.0, alcohol 0% (v/v), licoricidin 25 ppm",A (The bacterial count decreases to less than 10% of the bacterial count of the control group.)
same,Antimicrobial activity,"salt 0% (w/v), pH 5.0, alcohol 0% (v/v), licoricidin 50 ppm",A (The bacterial count decreases to less than 10% of the bacterial count of the control group.)
same,Antimicrobial activity,"salt 0% (w/v), pH 5.0, alcohol 5% (v/v), licoricidin 1 ppm",C (The bacterial count decreases to 50% or more and less than 100% of the bacterial count of control group.)
same,Antimicrobial activity,"salt 0% (w/v), pH 5.0, alcohol 5% (v/v), licoricidin 5 ppm",B (The bacterial count decreases to 10% or more and less than 50% of the bacterial count of the control group.)
same,Antimicrobial activity,"salt 0% (w/v), pH 5.0, alcohol 5% (v/v), licoricidin 10 ppm",B (The bacterial count decreases to 10% or more and less than 50% of the bacterial count of the control group.)
same,Antimicrobial activity,"salt 0% (w/v), pH 5.0, alcohol 5% (v/v), licoricidin 25 ppm",A (The bacterial count decreases to less than 10% of the bacterial count of the control group.)
same,Antimicrobial activity,"salt 0% (w/v), pH 5.0, alcohol 5% (v/v), licoricidin 50 ppm",A (The bacterial count decreases to less than 10% of the bacterial count of the control group.)
same,Antimicrobial activity,"salt 0% (w/v), pH 5.4, alcohol 0% (v/v), licoricidin 1 ppm",D
same,Antimicrobial activity,"salt 0% (w/v), pH 5.4, alcohol 0% (v/v), licoricidin 5 ppm",D
same,Antimicrobial activity,"salt 0% (w/v), pH 5.4, alcohol 0% (v/v), licoricidin 10 ppm",C (The bacterial count decreases to 50% or more and less than 100% of the bacterial count of control group.)
same,Antimicrobial activity,"salt 0% (w/v), pH 5.4, alcohol 0% (v/v), licoricidin 25 ppm",C (The bacterial count decreases to 50% or more and less than 100% of the bacterial count of control group.)
same,Antimicrobial activity,"salt 0% (w/v), pH 5.4, alcohol 0% (v/v), licoricidin 50 ppm",C (The bacterial count decreases to 50% or more and less than 100% of the bacterial count of control group.)
same,Antimicrobial activity,"salt 0% (w/v), pH 5.4, alcohol 5% (v/v), licoricidin 1 ppm",B (The bacterial count decreases to 10% or more and less than 50% of the bacterial count of the control group.)
same,Antimicrobial activity,"salt 0% (w/v), pH 5.4, alcohol 5% (v/v), licoricidin 5 ppm",A (The bacterial count decreases to less than 10% of the bacterial count of the control group.)
same,Antimicrobial activity,"salt 0% (w/v), pH 5.4, alcohol 5% (v/v), licoricidin 10 ppm",A (The bacterial count decreases to less than 10% of the bacterial count of the control group.)
same,Antimicrobial activity,"salt 0% (w/v), pH 5.4, alcohol 5% (v/v), licoricidin 25 ppm",A (The bacterial count decreases to less than 10% of the bacterial count of the control group.)
same,Antimicrobial activity,"salt 0% (w/v), pH 5.4, alcohol 5% (v/v), licoricidin 50 ppm",A (The bacterial count decreases to less than 10% of the bacterial count of the control group.)
same,Antimicrobial activity,"salt 0% (w/v), pH 5.8, alcohol 0% (v/v), licoricidin 1 ppm",D
same,Antimicrobial activity,"salt 0% (w/v), pH 5.8, alcohol 0% (v/v), licoricidin 5 ppm",D
same,Antimicrobial activity,"salt 0% (w/v), pH 5.8, alcohol 0% (v/v), licoricidin 10 ppm",D
same,Antimicrobial activity,"salt 0% (w/v), pH 5.8, alcohol 0% (v/v), licoricidin 25 ppm",D
same,Antimicrobial activity,"salt 0% (w/v), pH 5.8, alcohol 0% (v/v), licoricidin 50 ppm",D
same,Antimicrobial activity,"salt 0% (w/v), pH 5.8, alcohol 5% (v/v), licoricidin 1 ppm",B (The bacterial count decreases to 10% or more and less than 50% of the bacterial count of the control group.)
same,Antimicrobial activity,"salt 0% (w/v), pH 5.8, alcohol 5% (v/v), licoricidin 5 ppm",A (The bacterial count decreases to less than 10% of the bacterial count of the control group.)
same,Antimicrobial activity,"salt 0% (w/v), pH 5.8, alcohol 5% (v/v), licoricidin 10 ppm",A (The bacterial count decreases to less than 10% of the bacterial count of the control group.)
same,Antimicrobial activity,"salt 0% (w/v), pH 5.8, alcohol 5% (v/v), licoricidin 25 ppm",A (The bacterial count decreases to less than 10% of the bacterial count of the control group.)
same,Antimicrobial activity,"salt 0% (w/v), pH 5.8, alcohol 5% (v/v), licoricidin 50 ppm",A (The bacterial count decreases to less than 10% of the bacterial count of the control group.)
same,Antimicrobial activity,"salt 4% (w/v), pH 4.2, alcohol 0% (v/v), licoricidin 1 ppm",B (The bacterial count decreases to 10% or more and less than 50% of the bacterial count of the control group.)
same,Antimicrobial activity,"salt 4% (w/v), pH 4.2, alcohol 0% (v/v), licoricidin 5 ppm",A (The bacterial count decreases to less than 10% of the bacterial count of the control group.)
same,Antimicrobial activity,"salt 4% (w/v), pH 4.2, alcohol 0% (v/v), licoricidin 10 ppm",A (The bacterial count decreases to less than 10% of the bacterial count of the control group.)
same,Antimicrobial activity,"salt 4% (w/v), pH 4.2, alcohol 0% (v/v), licoricidin 25 ppm",A (The bacterial count decreases to less than 10% of the bacterial count of the control group.)
same,Antimicrobial activity,"salt 4% (w/v), pH 4.2, alcohol 0% (v/v), licoricidin 50 ppm",A (The bacterial count decreases to less than 10% of the bacterial count of the control group.)
